According to patent US9493455B2, “Azaindole derivatives as inhibitors of protein kinases” (ORIBASE PHARMA, priority 2012, dated 2016):

Key:
[1] = biological target: T1, EGFR (ErbB1) (Homo sapiens, UniProt P00533); assay: In vitro kinase assay (Z′-LYTE); type: biochemical; conditions: read-out: % of inhibition of the kinase compared to the control
T1 construct: purchased Invitrogen
Experimental: (§1) The inhibitory activity of the compounds on several kinases including BRAF, EGFR (ErbB1), EGFR (ErbB1) T790M L858R, FGFR2, KDR (VEGFR2), PDGFRA (PDGFR alpha), SRC and other was evaluated by Invitrogen using the Z′-LYTE® technology. Briefly, the Z′-LYTE® biochemical assay employs a fluorescence-based, coupled-enzyme format and is based on the differential sensitivity of phosphorylated and non-phosphorylated peptides to proteolytic cleavage. The peptide substrate is labeled with two fluorophores—one at each end—that make up a FRET pair. A ratiometric method, which calculates the ratio (the Emission Ratio) of donor emission to acceptor emission after excitation of the donor fluorophore at 400 nm, is used to quantitate reaction progress.
(§2) The compounds are screened in 1% DMSO (final) in the well. For 10 point titrations, 3-fold serial dilutions are conducted from the starting concentration. All Peptide/Kinase Mixtures are diluted to a 2× working concentration in the appropriate Kinase Buffer. All ATP Solutions are diluted to a 4× working concentration in Kinase Buffer (50 mM HEPES pH 7.5, 0.01% BRIJ-35, 10 mM MgCl2, 1 mM EGTA). ATP Km apparent is previously determined using a Z′-LYTE® assay.
(§3) Each compound was incubated at a concentration of 100 nM (excepted to test the activity against ABL and ABL T315I for which the compounds were incubated at a concentration of 10 μM) and the tables B1 to B12 summarize the results obtained showing the inhibitory power of a compound. The inhibitory activity of OR0512 was also investigated using the same assays and the kinases for which activity was inhibited at more than 50% at the concentration of 100 nM of OR0512 are listed in the table B13.

[2] = biological target: T2, FGFR2 (Homo sapiens, UniProt P21802); assay: In vitro kinase assay (Z′-LYTE); type: biochemical; conditions: read-out: % of inhibition of the kinase compared to the control
T2 construct: purchased Invitrogen
Experimental: as §1, §2, §3

[3] = biological target: T3, KDR (VEGFR2) (Homo sapiens, UniProt P35968); assay: In vitro kinase assay (Z′-LYTE); type: biochemical; conditions: read-out: % of inhibition of the kinase compared to the control
T3 construct: purchased Invitrogen
Experimental: as §1, §2, §3

[4] = biological target: T4, BRAF (Homo sapiens, UniProt P15056); assay: In vitro kinase assay (Z′-LYTE); type: biochemical; conditions: compound 100 nM; ATP 100 μM; read-out: % of inhibition of the kinase compared to the control
T4 construct: purchased Invitrogen
Experimental: as §1, §2, §3

[5] = biological target: T5, PDGFRA (PDGFR alpha) (Homo sapiens, UniProt P16234); assay: In vitro kinase assay (Z′-LYTE); type: biochemical; conditions: read-out: % of inhibition of the kinase compared to the control
T5 construct: purchased Invitrogen
Experimental: as §1, §2, §3

[6] = test system: HUVEC; assay: In vitro cell proliferation assay (MTT); type: cell-based; conditions: Homo sapiens, 72 h
Experimental: (§4) Cancer cell lines (5×10^3 cells per well) or HUVEC (1×10^4 cells per well) or HRMEC (1×10^4 cells per well) were distributed in 96-well plates and incubating in duplicate with escalating concentrations (10 nM to 3 μM) of compounds for 72 hr. Cell proliferation was measured using MTT (3 [4,5-dimethylthiazol-2-yl]-2,5-diphenyltetrazolium bromide).

[7] = test system: HuH7; assay: In vitro cell proliferation assay (MTT); type: cell-based; conditions: Homo sapiens, Huh-7, 72 h
Experimental: as §4

[8] = test system: HepG2; assay: In vitro cell proliferation assay (MTT); type: cell-based; conditions: Homo sapiens, HepG2, 72 h
Experimental: as §4

[9] = biological target: T6, EGFR (ErbB1) T790M L858R (Homo sapiens, UniProt P00533, L858R/T790M); assay: In vitro kinase assay (Z′-LYTE); type: biochemical; conditions: read-out: % of inhibition of the kinase compared to the control
T6 construct: purchased Invitrogen
Experimental: as §1, §2, §3

[10] = biological target: T7, FGFR1 (Homo sapiens, UniProt P11362); assay: In vitro kinase assay (Z′-LYTE); type: biochemical; conditions: read-out: % of inhibition of the kinase compared to the control
T7 construct: purchased Invitrogen
Experimental: as §1, §2, §3

[11] = biological target: T8, PDGFRB (Homo sapiens, UniProt P09619); assay: In vitro kinase assay (Z′-LYTE); type: biochemical; conditions: read-out: % of inhibition of the kinase compared to the control
T8 construct: purchased Invitrogen
Experimental: as §1, §2, §3

[12] = biological target: T9, VEGFR1 (Homo sapiens, UniProt P17948); assay: In vitro kinase assay (Z′-LYTE); type: biochemical; conditions: read-out: % of inhibition of the kinase compared to the control
T9 construct: purchased Invitrogen
Experimental: as §1, §2, §3

[13] = biological target: T10, SRC (Homo sapiens, UniProt P12931); assay: In vitro kinase assay (Z′-LYTE); type: biochemical; conditions: read-out: % of inhibition of the kinase compared to the control
T10 construct: purchased Invitrogen
Experimental: as §1, §2, §3

[14] = biological target: T11, ABL T315I (Homo sapiens, UniProt P00519, T315I); assay: In vitro kinase assay (Z′-LYTE); type: biochemical; conditions: read-out: % of inhibition of the kinase compared to the control
T11 construct: purchased Invitrogen
Experimental: as §1, §2, §3

[15] = biological target: T12, ABL (Homo sapiens, UniProt P00519); assay: In vitro kinase assay (Z′-LYTE); type: biochemical; conditions: read-out: % of inhibition of the kinase compared to the control
T12 construct: purchased Invitrogen
Experimental: as §1, §2, §3

[16] = test system: BxPC-3; assay: In vitro cell proliferation assay (MTT); type: cell-based; conditions: Homo sapiens, BXPC-3, 72 h
Experimental: as §4

[17] = test system: H1975; assay: In vitro cell proliferation assay (MTT); type: cell-based; conditions: Homo sapiens, NCI-H1975, 72 h
Experimental: as §4

[18] = test system: HT29; assay: In vitro cell proliferation assay (MTT); type: cell-based; conditions: Homo sapiens, HT-29, 72 h
Experimental: as §4

[19] = test system: A549; assay: In vitro cell proliferation assay (MTT); type: cell-based; conditions: Homo sapiens, A549, 72 h
Experimental: as §4

T4 sequence (P15056 whole entry): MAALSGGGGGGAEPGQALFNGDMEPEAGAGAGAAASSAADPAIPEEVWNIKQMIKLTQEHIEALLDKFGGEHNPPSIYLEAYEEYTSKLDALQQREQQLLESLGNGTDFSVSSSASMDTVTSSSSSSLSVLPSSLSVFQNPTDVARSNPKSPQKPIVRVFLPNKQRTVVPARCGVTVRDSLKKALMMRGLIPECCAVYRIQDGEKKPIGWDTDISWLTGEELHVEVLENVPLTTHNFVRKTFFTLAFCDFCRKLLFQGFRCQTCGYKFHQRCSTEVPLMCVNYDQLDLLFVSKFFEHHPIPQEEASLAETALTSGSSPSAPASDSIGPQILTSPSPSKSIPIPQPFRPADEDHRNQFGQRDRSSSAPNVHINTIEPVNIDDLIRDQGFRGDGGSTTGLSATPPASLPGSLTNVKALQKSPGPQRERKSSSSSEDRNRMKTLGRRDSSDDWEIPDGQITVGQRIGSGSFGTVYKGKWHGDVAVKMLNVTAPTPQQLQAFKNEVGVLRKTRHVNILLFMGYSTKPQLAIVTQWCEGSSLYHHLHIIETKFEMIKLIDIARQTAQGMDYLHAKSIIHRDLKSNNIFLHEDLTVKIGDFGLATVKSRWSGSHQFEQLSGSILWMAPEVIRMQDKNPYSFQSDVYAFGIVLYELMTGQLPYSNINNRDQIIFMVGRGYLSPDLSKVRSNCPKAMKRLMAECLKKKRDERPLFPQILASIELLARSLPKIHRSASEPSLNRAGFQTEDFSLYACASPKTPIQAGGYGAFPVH
T7 sequence (P11362 22-822): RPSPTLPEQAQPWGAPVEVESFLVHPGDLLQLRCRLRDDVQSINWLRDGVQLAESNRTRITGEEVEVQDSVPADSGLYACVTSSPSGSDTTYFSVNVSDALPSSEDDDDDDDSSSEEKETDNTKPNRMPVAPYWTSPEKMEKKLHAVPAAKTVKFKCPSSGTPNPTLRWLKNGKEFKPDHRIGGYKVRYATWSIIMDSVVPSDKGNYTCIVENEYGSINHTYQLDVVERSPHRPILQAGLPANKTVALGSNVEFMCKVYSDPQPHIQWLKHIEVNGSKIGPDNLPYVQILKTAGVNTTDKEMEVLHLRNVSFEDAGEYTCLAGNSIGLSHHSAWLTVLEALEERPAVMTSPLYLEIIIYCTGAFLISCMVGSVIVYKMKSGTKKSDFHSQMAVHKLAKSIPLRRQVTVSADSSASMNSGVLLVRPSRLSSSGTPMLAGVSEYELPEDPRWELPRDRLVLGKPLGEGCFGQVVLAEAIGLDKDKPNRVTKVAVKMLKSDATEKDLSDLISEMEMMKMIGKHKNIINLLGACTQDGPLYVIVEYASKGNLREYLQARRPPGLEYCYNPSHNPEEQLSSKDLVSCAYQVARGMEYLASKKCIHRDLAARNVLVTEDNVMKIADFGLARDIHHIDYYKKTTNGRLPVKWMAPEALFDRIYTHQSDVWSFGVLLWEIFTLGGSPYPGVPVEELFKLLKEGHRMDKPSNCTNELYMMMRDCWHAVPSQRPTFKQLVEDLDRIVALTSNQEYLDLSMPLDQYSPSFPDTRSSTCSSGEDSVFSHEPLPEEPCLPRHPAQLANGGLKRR
T1 sequence (P00533 25-1210): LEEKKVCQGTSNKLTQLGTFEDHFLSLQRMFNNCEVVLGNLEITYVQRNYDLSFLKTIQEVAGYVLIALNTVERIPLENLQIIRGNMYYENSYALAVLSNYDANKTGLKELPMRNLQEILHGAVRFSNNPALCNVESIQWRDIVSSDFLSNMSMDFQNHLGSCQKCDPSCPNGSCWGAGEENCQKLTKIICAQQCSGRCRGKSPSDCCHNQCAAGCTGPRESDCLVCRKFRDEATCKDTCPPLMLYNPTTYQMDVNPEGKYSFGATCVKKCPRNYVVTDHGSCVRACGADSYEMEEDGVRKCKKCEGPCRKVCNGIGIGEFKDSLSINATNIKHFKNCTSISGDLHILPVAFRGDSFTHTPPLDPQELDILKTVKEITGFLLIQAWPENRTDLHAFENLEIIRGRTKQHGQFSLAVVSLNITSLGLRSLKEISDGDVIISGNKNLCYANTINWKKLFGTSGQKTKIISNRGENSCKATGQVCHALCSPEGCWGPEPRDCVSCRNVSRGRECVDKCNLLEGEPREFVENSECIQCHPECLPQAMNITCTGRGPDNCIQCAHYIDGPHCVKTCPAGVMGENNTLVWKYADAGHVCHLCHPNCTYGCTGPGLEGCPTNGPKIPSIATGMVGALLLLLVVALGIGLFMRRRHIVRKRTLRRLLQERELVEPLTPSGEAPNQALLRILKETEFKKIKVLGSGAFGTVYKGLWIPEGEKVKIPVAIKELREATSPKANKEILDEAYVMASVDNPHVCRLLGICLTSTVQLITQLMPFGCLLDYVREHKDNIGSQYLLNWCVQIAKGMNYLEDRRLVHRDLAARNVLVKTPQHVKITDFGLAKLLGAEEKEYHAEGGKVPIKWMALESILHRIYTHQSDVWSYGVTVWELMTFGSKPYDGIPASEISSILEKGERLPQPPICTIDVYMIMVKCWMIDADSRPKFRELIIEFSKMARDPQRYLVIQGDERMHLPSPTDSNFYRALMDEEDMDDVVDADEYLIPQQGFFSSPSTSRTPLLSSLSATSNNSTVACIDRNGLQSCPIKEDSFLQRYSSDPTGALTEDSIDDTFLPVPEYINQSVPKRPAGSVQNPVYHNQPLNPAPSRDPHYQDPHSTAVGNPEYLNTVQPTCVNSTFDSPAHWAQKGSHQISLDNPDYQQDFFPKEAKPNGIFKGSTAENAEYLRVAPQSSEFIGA
T5 sequence (P16234 24-1089): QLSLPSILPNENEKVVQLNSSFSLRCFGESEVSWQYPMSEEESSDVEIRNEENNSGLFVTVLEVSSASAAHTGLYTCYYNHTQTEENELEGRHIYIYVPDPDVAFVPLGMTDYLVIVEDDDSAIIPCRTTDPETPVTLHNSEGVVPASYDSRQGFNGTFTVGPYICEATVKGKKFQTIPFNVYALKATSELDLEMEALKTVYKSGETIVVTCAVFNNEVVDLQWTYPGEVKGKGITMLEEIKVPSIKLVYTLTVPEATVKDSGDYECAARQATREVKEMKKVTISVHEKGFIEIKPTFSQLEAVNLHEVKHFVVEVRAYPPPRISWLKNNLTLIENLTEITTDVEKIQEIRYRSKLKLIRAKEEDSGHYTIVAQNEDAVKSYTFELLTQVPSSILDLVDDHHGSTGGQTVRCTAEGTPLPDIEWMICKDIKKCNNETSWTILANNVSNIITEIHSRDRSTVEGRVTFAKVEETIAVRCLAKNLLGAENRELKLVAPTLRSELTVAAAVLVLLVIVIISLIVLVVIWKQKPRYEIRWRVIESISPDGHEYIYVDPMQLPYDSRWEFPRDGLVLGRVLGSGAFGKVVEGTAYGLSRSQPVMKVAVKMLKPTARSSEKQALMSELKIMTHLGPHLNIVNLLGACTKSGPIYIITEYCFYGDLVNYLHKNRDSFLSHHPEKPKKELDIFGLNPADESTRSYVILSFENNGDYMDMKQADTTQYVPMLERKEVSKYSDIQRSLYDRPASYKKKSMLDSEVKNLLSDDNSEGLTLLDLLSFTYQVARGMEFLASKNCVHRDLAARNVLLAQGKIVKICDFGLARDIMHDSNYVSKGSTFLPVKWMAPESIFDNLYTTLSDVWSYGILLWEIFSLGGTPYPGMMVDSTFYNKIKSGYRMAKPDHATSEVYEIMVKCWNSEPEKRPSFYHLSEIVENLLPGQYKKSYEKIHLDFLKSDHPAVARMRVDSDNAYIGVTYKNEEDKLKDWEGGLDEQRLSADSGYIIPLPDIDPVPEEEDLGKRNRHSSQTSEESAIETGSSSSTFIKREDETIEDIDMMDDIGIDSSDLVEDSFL
T2 sequence (P21802 22-821): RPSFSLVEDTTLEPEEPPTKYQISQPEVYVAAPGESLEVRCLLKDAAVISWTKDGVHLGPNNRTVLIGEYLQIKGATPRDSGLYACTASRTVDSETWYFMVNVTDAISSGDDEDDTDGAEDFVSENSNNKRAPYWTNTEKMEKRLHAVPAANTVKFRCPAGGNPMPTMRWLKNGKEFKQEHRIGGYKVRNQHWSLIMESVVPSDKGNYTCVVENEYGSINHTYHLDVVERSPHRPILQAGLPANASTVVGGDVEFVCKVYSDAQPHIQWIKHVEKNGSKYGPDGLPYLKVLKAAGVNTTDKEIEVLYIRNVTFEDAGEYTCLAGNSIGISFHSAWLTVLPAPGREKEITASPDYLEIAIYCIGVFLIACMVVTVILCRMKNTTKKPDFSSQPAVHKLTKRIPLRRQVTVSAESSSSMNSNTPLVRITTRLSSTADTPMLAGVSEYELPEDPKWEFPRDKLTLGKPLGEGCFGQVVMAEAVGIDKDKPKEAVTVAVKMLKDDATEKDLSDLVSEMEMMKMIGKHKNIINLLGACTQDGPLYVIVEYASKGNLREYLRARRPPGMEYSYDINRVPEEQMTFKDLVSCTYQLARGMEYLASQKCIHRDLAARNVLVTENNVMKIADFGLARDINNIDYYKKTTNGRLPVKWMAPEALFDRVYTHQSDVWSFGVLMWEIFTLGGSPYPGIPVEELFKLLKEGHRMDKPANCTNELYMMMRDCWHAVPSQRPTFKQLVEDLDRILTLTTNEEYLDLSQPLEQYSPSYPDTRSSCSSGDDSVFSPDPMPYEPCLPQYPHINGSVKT

SMILES | inhibition at 0.1 µM [1] [%] | inhibition at 0.1 µM [2] [%] | inhibition at 0.1 µM [3] [%] | inhibition at 0.1 µM [4] [%] | inhibition at 0.1 µM [5] [%] | EC50 [7] [µM] | EC50 [8] [µM] | inhibition at 0.1 µM [9] [%] | inhibition at 0.1 µM [10] [%] | inhibition at 0.1 µM [11] [%] | inhibition at 0.1 µM [12] [%] | inhibition at 0.1 µM [13] [%] | inhibition at 10 µM [14] [%] | inhibition at 10 µM [15] [%] | EC50 [16] [µM] | EC50 [17] [µM] | EC50 [18] [µM] | EC50 [19] [µM] | EC50 [6] [µM]
COC(=O)c1cc2cc(NCc3ccc(C)c(NC(=O)c4ccc(CN5CCN(C)CC5)c(C(F)(F)F)c4)c3)cnc2[nH]1 [OR0622] | < 50 | ≥ 50 | ≥ 50 | < 50 | ≥ 50 | – | ≥ 1 | < 50 | ≥ 50 | < 50 | < 50 | ≥ 50 | ≥ 50 | ≥ 50 | ≥ 1 | ≥ 1 | ≥ 1 | ≥ 1 | 0.1 to 1
COC(=O)c1cc2cc(NCc3cc(NC(=O)c4ccc(C)c(C(F)(F)F)c4)ccc3C)cnc2[nH]1 [OR0869] | ≥ 50 | < 50 | < 50 | < 50 | < 50 | 0.1 to 1 | ≥ 1 | – | – | – | – | ≥ 50 | – | – | – | – | – | – | 0.1 to 1
COC(=O)c1cc2cc(NCc3cc(NC(=O)c4ccnc(C)c4)ccc3C)cnc2[nH]1 [OR0868] | < 50 | < 50 | < 50 | ≥ 50 | – | ≥ 1 | ≥ 1 | – | – | – | – | – | – | – | – | – | – | – | 0.1 to 1

Now from value to compound, other results behind:

inhibition at 0.1 µM [1] [%] | inhibition at 0.1 µM [2] [%] | inhibition at 0.1 µM [3] [%] | inhibition at 0.1 µM [4] [%] | inhibition at 0.1 µM [5] [%] | EC50 [7] [µM] | EC50 [8] [µM] | inhibition at 0.1 µM [9] [%] | inhibition at 0.1 µM [10] [%] | inhibition at 0.1 µM [11] [%] | inhibition at 0.1 µM [12] [%] | inhibition at 0.1 µM [13] [%] | inhibition at 10 µM [14] [%] | inhibition at 10 µM [15] [%] | EC50 [16] [µM] | EC50 [17] [µM] | EC50 [18] [µM] | EC50 [19] [µM] | SMILES | EC50 [6] [µM]
< 50 | < 50 | < 50 | < 50 | < 50 | ≥ 1 | ≥ 1 | – | – | – | – | – | – | – | – | – | – | – | COC(=O)c1cc2cc(NCc3cc(NS(=O)(=O)c4cccc(C(F)(F)F)c4)ccc3C)cnc2[nH]1 [OR0882] | ≥ 1
< 50 | < 50 | < 50 | < 50 | ≥ 50 | – | 0.1 to 1 | < 50 | < 50 | < 50 | < 50 | ≥ 50 | < 50 | ≥ 50 | 0.1 to 1 | ≥ 1 | ≥ 1 | 0.1 to 1 | COC(=O)c1cc2cc(NCc3cc(NC(=O)C4CCC(C(F)(F)F)CC4)ccc3C)cnc2[nH]1 (stereo not drawn) [OR0612] | 0.1 to 1
< 50 | < 50 | ≥ 50 | ≥ 50 | ≥ 50 | – | 0.1 to 1 | < 50 | < 50 | < 50 | < 50 | ≥ 50 | < 50 | ≥ 50 | 0.1 to 1 | ≥ 1 | ≥ 1 | 0.1 to 1 | COC(=O)c1cc2cc(NCc3cc(NC(=O)c4cccc(Br)c4)ccc3C)cnc2[nH]1 [OR0608] | 0.1 to 1
≥ 50 | < 50 | < 50 | < 50 | ≥ 50 | – | 0.1 to 1 | < 50 | < 50 | < 50 | < 50 | ≥ 50 | ≥ 50 | ≥ 50 | 0.1 to 1 | 0.1 to 1 | 0.1 to 1 | 0.1 to 1 | COC(=O)c1cc2cc(NCc3cc(NC(=O)c4ccc(CN5CCOCC5)c(C(F)(F)F)c4)ccc3C)cnc2[nH]1 [OR0598] | ≤ 0.1
≥ 50 | < 50 | ≥ 50 | ≥ 50 | ≥ 50 | – | 0.1 to 1 | ≥ 50 | < 50 | ≥ 50 | < 50 | ≥ 50 | ≥ 50 | ≥ 50 | ≥ 1 | ≥ 1 | 0.1 to 1 | 0.1 to 1 | COC(=O)c1cc2cc(NCc3cc(NC(=O)c4ccc(CNCCN5CCN(C)CC5)c(C(F)(F)F)c4)ccc3C)cnc2[nH]1 [OR0637] | 0.1 to 1
